Legend:
[1] = target: T1, Recombinant PI3K p110α/p85 (Homo sapiens, UniProt P42336); assay: PI3K Assay (radiometric lipid kinase assay); format: biochemical; conditions: p110α/p85, 2 μM ATP, 1 hour at RT; read-out: IC50 (PI3Kα)
T1 construct: made in house
Description: Recombinant PI3K p110α/p85 was prepared in-house. Phosphatidylinositol (PtdIns), phosphotidylserine (PtdSer) and all other unspecified chemicals were purchased from Sigma-Aldrich. [γ^33P]ATP and Optiphase scintillant were obtained from Perkin Elmer.
Assays were performed in a final assay volume of 25 μL in 384-well Maxisorp plates (Nunc). […] Maxisorp plates were coated with 20 μL/well of a 1:1 mixture of PtdIns and PtdSer [0.1 mg/mL each dissolved in chloroform:ethanol (3:7)] and left overnight in a fume hood at room temperature (RT) to dry.
The reaction was incubated for 1 hour at RT and terminated with 30 μL/well of 50 mM EDTA solution. The plate was then washed twice with TBS, dried, and added with 30 μL/well of scintillant before it was counted in a MicroBeta Trilux.

Truncated mTOR kinase = target: T2, Truncated mTOR kinase (Homo sapiens, UniProt P42345); assay: mTOR Assay (radiometric phosphorylation of 4eBP1); format: biochemical; conditions: 4eBP1 substrate, 10 μM ATP, 1 hour at room temperature
T2 construct: Truncated mTOR kinase and His-tagged 4eBP1 were produced in-house
T2 sequence (P42345 2156-2549 limits assumed): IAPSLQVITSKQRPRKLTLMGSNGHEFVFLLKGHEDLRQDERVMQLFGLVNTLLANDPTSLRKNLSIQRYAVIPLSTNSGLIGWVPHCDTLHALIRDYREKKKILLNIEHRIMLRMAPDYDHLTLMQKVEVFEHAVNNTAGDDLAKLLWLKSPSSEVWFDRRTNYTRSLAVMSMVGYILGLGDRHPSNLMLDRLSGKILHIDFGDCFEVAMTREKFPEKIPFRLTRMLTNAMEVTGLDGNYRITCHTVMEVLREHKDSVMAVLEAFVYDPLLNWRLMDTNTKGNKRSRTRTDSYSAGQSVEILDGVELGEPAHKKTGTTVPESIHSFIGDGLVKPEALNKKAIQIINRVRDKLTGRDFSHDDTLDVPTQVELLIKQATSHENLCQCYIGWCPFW
Description: Truncated mTOR kinase and His-tagged 4eBP1 were produced in-house. [γ^33P]-ATP was purchased from Amersham (GE Healthcare). All chemicals, unless otherwise stated, were from Sigma-Aldrich.
Phosphorylation assays were initially performed in a final volume of 20 μL in 384-well polypropylene plate (Greiner). […] The reaction was initiated by adding 10 μL/well of 20 μM ATP solution (final assay concentration 10 μM ATP and 0.4 μCi/well of [γhu 33P]-ATP). After 1 hour incubation at room temperature, the reaction was terminated with 40 μL/well of 20 mM EDTA/1 mM ATP solution.
50 μL/well of the stopped reaction mix was then transferred to 384-well MultiScreenHTS-PH filter plate (Millipore) pre-added with 50 μL/well of 1% phosphoric acid. The plate was washed 4 times with 120 μL/well of 0.5% phosphoric acid via vacuum filtration. Finally, 10 μL/well of Optiphase™ SuperMix liquid scintillation cocktail (Perkin Elmer) was added. After minimum 1 hour of incubation, counting was performed in a Wallac MicroBeta TriLux scintillation counter using coincidence counting mode with crosstalk correction.

PC3 cells = assay: Cell-based proliferation assay, PC3; conditions: Homo sapiens, PC-3, 96 h treatment, Celltiter96 Aqueous One Solution
Description: (§1) Human cancer cell lines PC3 and DU145 (human prostate cancer cell lines), were obtained from ATCC. They were cultured in the media according to the ATCC work instructions. PC3 and DU145 cells were seeded at 1,000 cells per well in 96-well plates, respectively. The plates were incubated at 37° C., 5% CO2, for 24 h. Cells were treated with compounds at various concentrations for 96 h. Cell proliferation was then quantified using Celltiter96 Aqueous One Solution Cell Proliferation Assay from Promega (Madison Wis.). Dose response curves were plotted to determine IC50 values for the compounds using XL-fit (ID Business Solution, Emeryville, Calif.).

human cancer cell lines = conditions: different human cancer cell lines in vitro and xenograft models in vivo; read-out: IC50 (anti-neoplastic activity); cited from earlier work
DU145 cells = assay: Cell-based proliferation assay, DU145; conditions: Homo sapiens, DU-145, 96 h treatment, Celltiter96 Aqueous One Solution
Description: as §1

[2] = tested on: human breast cancer cell lines; conditions: two of eight human breast cancer cell lines, resistant; cited from earlier work

T1 sequence (P42336 whole entry): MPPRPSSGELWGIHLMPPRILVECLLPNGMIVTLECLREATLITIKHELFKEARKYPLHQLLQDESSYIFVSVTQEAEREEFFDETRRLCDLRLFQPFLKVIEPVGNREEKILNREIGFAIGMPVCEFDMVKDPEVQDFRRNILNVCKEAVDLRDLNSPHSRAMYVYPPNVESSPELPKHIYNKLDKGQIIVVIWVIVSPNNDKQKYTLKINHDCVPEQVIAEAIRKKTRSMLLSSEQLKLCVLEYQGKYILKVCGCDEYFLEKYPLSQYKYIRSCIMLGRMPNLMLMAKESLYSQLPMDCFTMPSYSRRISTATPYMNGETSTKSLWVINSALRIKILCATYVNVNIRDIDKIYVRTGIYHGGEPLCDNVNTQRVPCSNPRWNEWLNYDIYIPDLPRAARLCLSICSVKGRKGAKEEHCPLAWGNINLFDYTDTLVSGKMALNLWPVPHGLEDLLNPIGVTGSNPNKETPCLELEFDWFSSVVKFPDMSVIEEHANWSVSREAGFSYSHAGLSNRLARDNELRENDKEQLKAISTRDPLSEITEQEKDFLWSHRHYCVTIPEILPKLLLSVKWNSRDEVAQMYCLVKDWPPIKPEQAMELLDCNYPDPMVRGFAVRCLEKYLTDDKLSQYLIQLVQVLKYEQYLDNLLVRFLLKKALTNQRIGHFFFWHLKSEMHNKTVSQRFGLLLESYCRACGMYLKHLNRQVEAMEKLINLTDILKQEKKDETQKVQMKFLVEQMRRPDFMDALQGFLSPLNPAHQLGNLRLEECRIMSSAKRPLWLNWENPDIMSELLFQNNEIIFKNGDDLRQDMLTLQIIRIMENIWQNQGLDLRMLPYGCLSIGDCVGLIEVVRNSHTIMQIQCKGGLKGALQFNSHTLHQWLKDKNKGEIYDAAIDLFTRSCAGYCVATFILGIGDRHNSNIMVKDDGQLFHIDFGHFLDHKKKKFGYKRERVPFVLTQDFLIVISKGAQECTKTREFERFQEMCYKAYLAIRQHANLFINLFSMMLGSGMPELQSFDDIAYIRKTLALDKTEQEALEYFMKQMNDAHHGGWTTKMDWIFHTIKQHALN
T1 sequence (P27986 whole entry partner): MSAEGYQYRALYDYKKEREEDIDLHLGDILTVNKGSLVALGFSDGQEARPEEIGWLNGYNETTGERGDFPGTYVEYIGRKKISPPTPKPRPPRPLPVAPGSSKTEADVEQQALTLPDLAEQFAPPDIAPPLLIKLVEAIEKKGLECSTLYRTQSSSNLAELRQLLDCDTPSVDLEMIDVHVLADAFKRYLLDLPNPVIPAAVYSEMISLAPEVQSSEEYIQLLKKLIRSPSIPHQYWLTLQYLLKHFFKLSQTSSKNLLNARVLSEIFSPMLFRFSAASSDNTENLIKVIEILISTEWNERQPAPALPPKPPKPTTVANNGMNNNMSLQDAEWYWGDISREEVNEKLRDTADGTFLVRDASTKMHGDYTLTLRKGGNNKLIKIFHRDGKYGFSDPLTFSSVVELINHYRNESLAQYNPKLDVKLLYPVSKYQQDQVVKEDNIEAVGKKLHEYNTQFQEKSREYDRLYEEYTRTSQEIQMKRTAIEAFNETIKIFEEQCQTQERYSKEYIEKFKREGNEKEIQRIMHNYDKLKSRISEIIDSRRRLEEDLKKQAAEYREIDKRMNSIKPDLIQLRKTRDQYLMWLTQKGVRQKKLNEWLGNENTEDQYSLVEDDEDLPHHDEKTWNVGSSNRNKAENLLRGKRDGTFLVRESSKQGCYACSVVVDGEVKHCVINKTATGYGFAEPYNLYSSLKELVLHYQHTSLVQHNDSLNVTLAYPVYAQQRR

Row | SMILES | IC50 [1] | IC50 (Truncated mTOR kinase) | other results
1 | COc1nc(N)ncc1-c1nc(N2CCOCC2)nc2c1ncn2C(C)C1CC1 (stereo not drawn) [Compound 11] | < 1000 nM | 1000 to 5000 nM | –
2 | COCC(C)n1cnc2c(-c3cnc(N)nc3C)nc(N3CCOCC3)nc21 (stereo not drawn) [Compound 16] | < 1000 nM | > 5000 nM | –
3 | CC(COC(C)(C)C)n1cnc2c(-c3cnc(N)nc3)nc(N3CCOCC3)nc21 (stereo not drawn) [Compound 5] | < 1000 nM | 1000 to 5000 nM | –
4 | CCC(C)n1cnc2c(-c3cnc(N)nc3)nc(N3CCOCC3)nc21 (stereo not drawn) [Compound 26] | – | – | IC50 (PC3 cells): ≤ 1000 nM
5 | CCC(C#N)n1cnc2c(-c3cnc(N)nc3)nc(N3CCOCC3)nc21 (stereo not drawn) [Compound 23] | < 1000 nM | < 1000 nM | IC50 (PC3 cells): ≤ 1000 nM
6 | COCC(C)n1cnc2c(-c3cnc(N)nc3OC)nc(N3CCOCC3)nc21 (stereo not drawn) [Compound 13] | < 1000 nM | 1000 to 5000 nM | –
7 | COCC(C)n1cnc2c(-c3cnc(N)nc3)nc(N3CCOCC3)nc21 (stereo not drawn) [Compound 12] | < 1000 nM | < 1000 nM | –
8 | Cc1nc(N)ncc1-c1nc(N2CCOCC2)nc2c1ncn2C(C)C1CC1 (stereo not drawn) [Compound 15] | < 1000 nM | > 5000 nM | –
9 | CCC(C)n1cnc2c(-c3cncnc3)nc(N3CCOCC3)nc21 (stereo not drawn) [Compound 6] | < 1000 nM | 1000 to 5000 nM | –
10 | CCC(C)n1cnc2c(-c3cnc(N)nc3OC)nc(N3CCOCC3)nc21 (stereo not drawn) [Compound 8] | < 1000 nM | < 1000 nM | –
11 | CC(C)(C)OC(=O)N1CCC(n2cnc3c(-c4cnc(N)nc4)nc(N4CCOCC4)nc32)CC1 [Compound 19] | < 1000 nM | < 1000 nM | IC50 (PC3 cells): ≤ 1000 nM
12 | CCC(C)n1cnc2c(-c3cnc(N)nc3C)nc(N3CCOCC3)nc21 (stereo not drawn) [Compound 14] | < 1000 nM | > 5000 nM | –
13 | CO[C@H]1C[C@@H]2CC[C@@H](C)[C@@](O)(O2)C(=O)C(=O)N2CCCC[C@H]2C(=O)O[C@H]([C@H](C)C[C@@H]2CC[C@@H](OCCO)[C@H](OC)C2)CC(=O)[C@H](C)/C=C(\C)[C@@H](O)[C@@H](OC)C(=O)[C@H](C)C[C@H](C)/C=C/C=C/C=C/1C [RAD001, 40-O-(2-hydroxyethyl)-rapamycin] | – | – | IC50 (human cancer cell lines): 5 to 1800 nM
14 | Nc1ncc(-c2nc(N3CCOCC3)nc3c2ncn3[C@H]2CCOC2)cn1 [Compound 18] | < 1000 nM | – | –
15 | c1ccc(Cn2cnc3c(-c4cncnc4)nc(N4CCOCC4)nc32)cc1 [Compound 4] | < 1000 nM | > 5000 nM | –
16 | CCCC(=O)N1CCC(n2cnc3c(-c4cnc(N)nc4)nc(N4CCOCC4)nc32)CC1 [Compound 21] | < 1000 nM | < 1000 nM | IC50 (PC3 cells): ≤ 1000 nM
17 | CCC(C)n1cnc2c(-c3cnc(NC)nc3)nc(N3CCOCC3)nc21 (stereo not drawn) [Compound 20] | < 1000 nM | < 1000 nM | –
18 | Nc1ncc(-c2nc(N3CCOCC3)nc3c2ncn3CC2CC2)cn1 [Compound 3] | < 1000 nM | < 1000 nM | IC50 (DU145 cells): 1000 to 5000 nM
19 | Nc1ncc(-c2nc(N3CCOCC3)nc3c2ncn3Cc2c(F)cccc2F)cn1 [Compound 1] | < 1000 nM | 1000 to 5000 nM | –
20 | CC(C1CC1)n1cnc2c(-c3cnc(N)nc3)nc(N3CCOCC3)nc21 (stereo not drawn) [Compound 10] | < 1000 nM | < 1000 nM | IC50 (PC3 cells): ≤ 1000 nM
21 | Nc1ncc(-c2nc(N3CCOCC3)nc3c2ncn3C2CCOC2)cn1 (stereo not drawn) [Compound 18] | – | < 1000 nM | IC50 (PC3 cells): ≤ 1000 nM
22 | CC[C@@H](C)n1cnc2c(-c3cnc(N)nc3)nc(N3CCOCC3)nc21 [Compound 25] | – | – | IC50 (PC3 cells): ≤ 1000 nM
23 | CC(C)C(C)n1cnc2c(-c3cnc(N)nc3)nc(N3CCOCC3)nc21 (stereo not drawn) [Compound 22] | < 1000 nM | < 1000 nM | IC50 (PC3 cells): ≤ 1000 nM
24 | CCC(CC)n1cnc2c(-c3cnc(N)nc3)nc(N3CCOCC3)nc21 [Compound 24] | < 1000 nM | < 1000 nM | –
25 | CC(c1ccccc1)n1cnc2c(-c3cnc(N)nc3)nc(N3CCOCC3)nc21 (stereo not drawn) [Compound 9] | < 1000 nM | 1000 to 5000 nM | –
26 | Cc1nc(N)ncc1-c1nc(N2CCOCC2)nc2c1ncn2C(C)c1ccccc1 (stereo not drawn) [Compound 17] | < 1000 nM | > 5000 nM | –
27 | CCC(C)n1c(Br)nc2c(-c3cnc(N)nc3)nc(N3CCOCC3)nc21 (stereo not drawn) [Compound 42, 5-(8-Bromo-9-sec-butyl-2-morpholin-4-yl-9H-purin-6-yl)-pyrimidin-2-ylamine] | – | – | IC50 (PC3 cells): ≤ 1000 nM
28 | Nc1ncc(-c2nc(N3CCOCC3)nc3c2ncn3C2CCCC2)cn1 [Compound 7] | < 1000 nM | < 1000 nM | –
29 | CO[C@H]1C[C@@H]2CC[C@@H](C)[C@@](O)(O2)C(=O)C(=O)N2CCCC[C@H]2C(=O)O[C@H]([C@H](C)C[C@@H]2CC[C@@H](OC(=O)C(C)(CO)CO)[C@H](OC)C2)CC(=O)[C@H](C)/C=C(\C)[C@@H](O)[C@@H](OC)C(=O)[C@H](C)C[C@H](C)/C=C/C=C/C=C/1C [CCI-779] | – | – | IC50 [2]: > 1000 nM

Continued, in another order:

Row | IC50 [1] | IC50 (Truncated mTOR kinase) | SMILES | other results
30 | < 1000 nM | < 1000 nM | CC1CCC(n2cnc3c(-c4cnc(N)nc4)nc(N4CCOCC4)nc32)CC1 (stereo not drawn) [Compound 36] | –
31 | < 1000 nM | < 1000 nM | Cc1ccc(C(=O)N2CCC(n3cnc4c(-c5cnc(N)nc5)nc(N5CCOCC5)nc43)C2)s1 (stereo not drawn) [Compound 33, {3-[6-(2-Amino-pyrimidin-5-yl)-2-morpholin-4-yl-purin-9-yl]-pyrrolidin-1-yl}-(5-methyl-thiophen-2-yl)-methanone] | –
32 | < 1000 nM | 1000 to 5000 nM | Nc1ncc(-c2nc(N3CCOCC3)nc3[nH]cnc23)cn1 [Compound 34] | –
33 | – | 1000 to 5000 nM | Nc1ncc(-c2nc(N3CCOCC3)nc3c2ncn3C2CCNC2)cn1 (stereo not drawn) [Compound 28] | –
34 | < 1000 nM | < 1000 nM | Nc1ncc(-c2nc(N3CCOCC3)nc3c2ncn3C2Cc3ccccc3C2)cn1 [Compound 31] | –
35 | < 1000 nM | < 1000 nM | Nc1ncc(-c2nc(N3CCOCC3)nc3c2ncn3C2CCN(C(=O)c3ccccc3)C2)cn1 (stereo not drawn) [Compound 32] | –
36 | – | < 1000 nM | CCC(C)n1cnc2c(-c3cnc(N)nc3)nc(N3CCOCC3C)nc21 (stereo not drawn) [Compound 35] | IC50 (PC3 cells): ≤ 1000 nM
37 | < 1000 nM | < 1000 nM | Nc1ncc(-c2nc(N3CCOCC3)nc3c2ncn3-c2ccccc2)cn1 [Compound 38] | –
38 | < 1000 nM | < 1000 nM | CC1CCC(n2cnc3c(-c4cnc(N)nc4)nc(N4CCOCC4)nc32)C1 (mixture of isomers) [Compound 37] | IC50 (PC3 cells): ≤ 1000 nM
39 | < 1000 nM | < 1000 nM | CC(C)(C)Cn1cnc2c(-c3cnc(N)nc3)nc(N3CCOCC3)nc21 [Compound 29] | IC50 (PC3 cells): ≤ 1000 nM
40 | < 1000 nM | < 1000 nM | Cc1cccc(-n2cnc3c(-c4cnc(N)nc4)nc(N4CCOCC4)nc32)c1 [Compound 27, 5-(2-morpholin-4-yl-9-m-tolyl-9H-purin-6-yl)-pyrimidin-2-yl-amine] | –
41 | < 1000 nM | – | CCC(C)n1cnc2c(-c3cnc(N)nc3)nc(N3CCOC[C@@H]3C)nc21 (stereo partly drawn) [Compound 35] | –
42 | < 1000 nM | < 1000 nM | Nc1ncc(-c2nc(N3CCOCC3)nc3c2ncn3C2CCc3ccccc3C2)cn1 (stereo not drawn) [Compound 30] | –

Reference: patent US20140066620A1, “PYRIMIDINE SUBSTITUTED PURINE DERIVATIVES” (VERASTEM, INC., priority 2007, published 2014)
